The source of these data is patent US20110301087A1, “CRF1 RECEPTOR COMPOUNDS” (priority 2008, published 2011).

Structures are written as SMILES. Where a SMILES comes first, the peptide text is derived from it. [ ]: non-standard residue; d: D form. The star is where a group is joined. Palmitoyl = CCCCCCCCCCCCCCCC(=O)*; Nle = CCCC[C@H](N)C(=O)O

Usually IC50 stands for the midpoint of a concentration-inhibition curve. Usually inhibition stands for the percentage by which the read-out fell short of the control.

This assay has as its target T1, CRF1 (Homo sapiens, UniProt P34998).
T1 construct: endogenously expresses functional CRF1; endogenous in cells; host or cells: Y-79 human retinoblastoma cells
T1 sequence (P34998 24-415): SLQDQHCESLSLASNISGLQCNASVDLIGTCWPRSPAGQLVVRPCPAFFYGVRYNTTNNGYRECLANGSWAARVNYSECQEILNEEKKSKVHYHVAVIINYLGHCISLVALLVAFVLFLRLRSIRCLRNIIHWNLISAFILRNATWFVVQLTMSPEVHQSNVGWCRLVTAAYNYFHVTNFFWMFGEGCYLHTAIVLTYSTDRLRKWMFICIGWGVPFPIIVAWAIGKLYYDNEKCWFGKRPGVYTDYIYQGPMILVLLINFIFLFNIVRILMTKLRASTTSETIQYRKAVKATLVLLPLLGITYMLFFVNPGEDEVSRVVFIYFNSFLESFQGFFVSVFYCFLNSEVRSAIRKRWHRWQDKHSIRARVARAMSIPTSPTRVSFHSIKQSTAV
As to the kind of experiment: CRF1 assessment of cAMP (HTRF cAMP assay) in Y-79 cells, antagonist mode. The format is cell-based. Particulars: Y79 cells; for IC50: CRF1 cAMP screening, against agonist; for inhibition at 0.3 µM: 300 nM pepducin against agonist dose response, read-out: % Inhibition (± SD). An excerpt:
HTRF (homogeneous time resolved fluorescence) is a technology developed by Cisbio Bioassays based on TR-FRET (time-resolved fluorescence resonance energy transfer). Cisbio Bioassays has developed a wide selection of HTRF-based assays compatible with whole cells, thereby enabling functional assays run under more physiological conditions. cAMP kits are based on a competitive immunoassay using cryptate-labeled anti-cAMP antibody and d2-labeled cAMP. This assay allows the measurement of increase in intracellular cAMP upon Gs-coupled receptor activation as well as decrease in forskolin stimulated increase in cAMP upon Gi-coupled receptor activation. Cells expressing CRF1 endogenously or via transfection can be used to assess compound pharmacology using cAMP assays as a means to measure the activity of adenylyl cyclase resulting from CRF1 activation or inhibition.
An example of the use of the cAMP assay can be assessing CRF activation of CRF1 in Y-79, a human retinoblastoma cell line which endogenously expresses functional CRF1. Y-79 cells were seeded into 96-well half area black plates at 30K/well in Hank's balanced salt solution with 50 mM HEPES, 0.1% BSA, 200 uM IBMX. Compounds to be tested for agonist activity were added to cells, incubated for 30 minutes at 37 degrees C. and assayed for cAMP concentration. To test for antagonist activity, compounds to be tested were added to cells, followed by the addition of agonist at an experimentally determined optimal concentration, generally the EC80. Plates were incubated for 30 minutes at 37 degrees C. and assayed for cAMP. To determine concentration of cAMP in each well, d2-labeled cAMP in Conjugate/Lysis buffer was added to wells. This addition lysed the cells and input a known concentration of labeled cAMP. This was followed by the addition of anti-cAMP antibody conjugated to cryptate. FRET occurs when cryptate-labeled antibody binds to d2-labeled cAMP. Therefore, the specific signal is inversely proportional to the concentration of cAMP in the sample. Conversion of signal to concentration of cAMP in the well was accomplished by comparing the FRET signal of sample to a standard curve generated using known concentrations of cAMP.

As to `CCCCCCCCCCCCCCCC(=O)N[C@@H](Cc1ccc(O)cc1)C(=O)N[C@@H](CO)C(=O)N[C@H](C(=O)N[C@@H](CC(=O)O)C(=O)N[C@@H](CCCNC(=N)N)C(=O)N[C@@H](CC(C)C)C(=O)N[C@@H](CCCNC(=N)N)C(=O)N[C@@H](CCCCN)C(=O)N[C@@H](Cc1c[nH]c2ccccc12)C(=O)N[C@@H](CCSC)C(=O)N[C@@H](Cc1ccccc1)C(=O)N[C@H](C(N)=O)[C@@H](C)CC)[C@@H](C)O` [Compound 34] (Palmitoyl-YSTDRLRKWMFI-NH2), the IC50 fell in the range of 501 to 1000 nM and the inhibition at 0.3 µM came out at 21 ± 5%.

As for `CCCCCCCCCCCCCCCC(=O)NCC(=O)N[C@@H](CO)C(=O)N[C@@H](CCCNC(=N)N)C(=O)N[C@@H](CC(C)C)C(=O)N[C@@H](CCCNC(=N)N)C(=O)N[C@@H](CCCCN)C(=O)N[C@@H](Cc1c[nH]c2ccccc12)C(=O)N[C@@H](CCSC)C(=O)N[C@@H](Cc1ccccc1)C(=O)N[C@H](C(N)=O)[C@@H](C)CC` [Compound 28] (Palmitoyl-GSRLRKWMFI-NH2), the IC50 fell in the range of 1000 to 5000 nM and the inhibition at 0.3 µM amounted to 52 ± 5%.

On to `CCCCCCCCCCCCCCCC(=O)N[C@H](C(=O)N[C@@H](CC(=O)O)C(=O)N[C@@H](CCCNC(=N)N)C(=O)N[C@@H](CC(C)C)C(=O)N[C@@H](CCCNC(=N)N)C(=O)N[C@@H](CCCCN)C(=O)N[C@@H](C)C(=O)N[C@@H](CCSC)C(=O)N[C@@H](Cc1ccccc1)C(=O)N[C@H](C(N)=O)[C@@H](C)CC)[C@@H](C)O` [Compound 50] (Palmitoyl-TDRLRKAMFI-NH2), for which the IC50 is above 10000 nM and the inhibition at 0.3 µM worked out at 58%.

Regarding `CCCCCCCCCCCCCCCC(=O)N[C@@H](CCCNC(=N)N)C(=O)N[C@H](C(=O)N[C@@H](CC(C)C)C(=O)N[C@@H](CCSC)C(=O)N[C@H](C(=O)N[C@@H](CCCCN)C(=O)N[C@@H](CC(C)C)C(=O)N[C@@H](CCCNC(=N)N)C(=O)N[C@@H](C)C(=O)N[C@@H](CO)C(=O)N[C@H](C(=O)N[C@H](C(=O)N[C@@H](CO)C(N)=O)[C@@H](C)O)[C@@H](C)O)[C@@H](C)O)[C@@H](C)CC` [Compound 58, Pal-RILMTKLRASTTS-amide] (Palmitoyl-RILMTKLRASTTS-NH2), the IC50 lay within 501 to 1000 nM and the inhibition at 0.3 µM worked out at 35%.

With `CCCCCCCCCCCCCCCC(=O)N[C@@H](C)C(=O)N[C@@H](CC(=O)O)C(=O)N[C@@H](CCCNC(=N)N)C(=O)N[C@@H](CC(C)C)C(=O)N[C@@H](CCCNC(=N)N)C(=O)N[C@@H](CCCCN)C(=O)N[C@@H](Cc1c[nH]c2ccccc12)C(=O)N[C@@H](CCSC)C(=O)N[C@@H](Cc1ccccc1)C(=O)N[C@H](C(N)=O)[C@@H](C)CC` [Compound 44] (Palmitoyl-ADRLRKWMFI-NH2), the IC50 is above 10000 nM and the inhibition at 0.3 µM came to 42%.

With `CCCCCCCCCCCCCCCC(=O)N[C@@H](CCCNC(=N)N)C(=O)N[C@@H](CC(C)C)C(=O)N[C@@H](CCCNC(=N)N)C(=O)N[C@@H](CCCCN)C(=O)N[C@@H](Cc1c[nH]c2ccccc12)C(=O)N[C@@H](CCSC)C(=O)N[C@@H](C)C(=O)N[C@H](C(N)=O)[C@@H](C)CC` [Compound 41] (Palmitoyl-RLRKWMAI-NH2), the IC50 lay in the range of 501 to 1000 nM and the inhibition at 0.3 µM stood at 40%.

Take `CCCCCCCCCCCCCCCC(=O)N[C@H](C(=O)N[C@@H](CC(=O)O)C(=O)N[C@@H](CCCNC(=N)N)C(=O)N[C@@H](CC(C)C)C(=O)N[C@@H](CCCNC(=N)N)C(=O)N[C@@H](CCCCN)C(=O)N[C@@H](Cc1c[nH]c2ccccc12)C(=O)N[C@@H](C)C(=O)N[C@@H](Cc1ccccc1)C(=O)N[C@H](C(N)=O)[C@@H](C)CC)[C@@H](C)O` [Compound 51] (Palmitoyl-TDRLRKWAFI-NH2): the IC50 fell in the range of 501 to 1000 nM and the inhibition at 0.3 µM came out at 47 ± 7%.

`CCCCCCCCCCCCCCCC(=O)NCC(=O)N[C@@H](CO)C(=O)N[C@H](C(=O)N[C@@H](CC(=O)O)C(=O)N[C@@H](CCCNC(=N)N)C(=O)N[C@@H](CC(C)C)C(=O)N[C@@H](CCCNC(=N)N)C(=O)N[C@@H](CCCCN)C(=O)N[C@@H](C)C(=O)N[C@@H](CCCC)C(=O)N[C@@H](Cc1ccccc1)C(=O)N[C@H](C(N)=O)[C@@H](C)CC)[C@@H](C)O` [Compound 53] (Palmitoyl-GSTDRLRKA[Nle]FI-NH2): the inhibition at 0.3 µM worked out at 50 ± 14%.

As for `CCCCCCCCCCCCCCCC(=O)NCC(=O)N[C@@H](CO)C(=O)N[C@H](C(=O)N[C@@H](CCCNC(=N)N)C(=O)N[C@@H](C)C(=O)N[C@@H](CCCNC(=N)N)C(=O)N[C@H](C(=O)N[C@@H](C)C(=O)N[C@@H](CCCNC(=N)N)C(=O)N[C@@H](C)C(=O)N[C@@H](CCSC)C(N)=O)C(C)C)[C@@H](C)CC` [Compound 64] (Palmitoyl-GSIRARVARAM-NH2), the IC50 lay in the range of 1000 to 5000 nM and the inhibition at 0.3 µM turned out to be 55 ± 13%.

On to `CCCCCCCCCCCCCCCC(=O)N[C@H](C(=O)N[C@@H](CC(=O)O)C(=O)N[C@@H](CCCNC(=N)N)C(=O)N[C@@H](C)C(=O)N[C@@H](CCCNC(=N)N)C(=O)N[C@@H](CCCCN)C(=O)N[C@@H](Cc1c[nH]c2ccccc12)C(=O)N[C@@H](CCSC)C(=O)N[C@@H](Cc1ccccc1)C(=O)N[C@H](C(N)=O)[C@@H](C)CC)[C@@H](C)O` [Compound 47] (Palmitoyl-TDRARKWMFI-NH2), for which the IC50 is 1000 to 5000 nM and the inhibition at 0.3 µM is 62%.

Take `CCCCCCCCCCCCCCCC(=O)N[C@H](C(=O)N[C@@H](CC(=O)O)C(=O)N[C@@H](CCCNC(=N)N)C(=O)N[C@@H](CC(C)C)C(=O)N[C@@H](CCCNC(=N)N)C(=O)N[C@@H](CCCCN)C(=O)N[C@@H](Cc1c[nH]c2ccccc12)C(=O)N[C@@H](CCCC)C(=O)N[C@@H](Cc1ccccc1)C(=O)N[C@H](C(N)=O)[C@@H](C)CC)[C@@H](C)O` [Compound 54] (Palmitoyl-TDRLRKW[Nle]FI-NH2): the inhibition at 0.3 µM is 55 ± 7%.

On to `CCCCCCCCCCCCCCCC(=O)N[C@@H](CCCNC(=N)N)C(=O)N[C@@H](CC(C)C)C(=O)N[C@@H](CCCNC(=N)N)C(=O)N[C@@H](CCCCN)C(=O)N[C@@H](Cc1c[nH]c2ccccc12)C(=O)N[C@@H](CCSC)C(=O)N[C@@H](Cc1ccccc1)C(=O)N[C@H](C(N)=O)[C@@H](C)CC` [Compound 30] (Palmitoyl-RLRKWMFI-NH2), for which the IC50 was in the range of 1000 to 5000 nM and the inhibition at 0.3 µM came to 39 ± 7%.

As to `CCCCCCCCCCCCCCCC(=O)N[C@H](C(=O)N[C@@H](CC(=O)O)C(=O)N[C@@H](CCCNC(=N)N)C(=O)N[C@@H](CC(C)C)C(=O)N[C@@H](CCCNC(=N)N)C(=O)N[C@@H](CCCCN)C(=O)N[C@@H](Cc1c[nH]c2ccccc12)C(=O)N[C@@H](CCSC)C(=O)N[C@@H](Cc1ccccc1)C(=O)N[C@H](C(N)=O)[C@@H](C)CC)[C@@H](C)O` [Compound 32, Pal-TDRLRKWMFI-amide] (Palmitoyl-TDRLRKWMFI-NH2), the IC50 is 501 to 1000 nM and the inhibition at 0.3 µM came out at 53 ± 9%.

As for `CCCCCCCCCCCCCCCC(=O)N[C@H](C(=O)N[C@@H](CC(=O)O)C(=O)N[C@@H](CCCNC(=N)N)C(=O)N[C@@H](CC(C)C)C(=O)N[C@@H](CCCNC(=N)N)C(=O)N[C@@H](CCCCN)C(=O)N[C@@H](Cc1c[nH]c2ccccc12)C(=O)N[C@@H](CCSC)C(=O)N[C@@H](C)C(=O)N[C@H](C(N)=O)[C@@H](C)CC)[C@@H](C)O` [Compound 43] (Palmitoyl-TDRLRKWMAI-NH2), the IC50 is above 10000 nM and the inhibition at 0.3 µM was found to be 48%.

For the molecule `CCCCCCCCCCCCCCCC(=O)N[C@@H](C)C(=O)N[C@@H](CO)C(=O)N[C@H](C(=O)N[C@H](C(=O)N[C@@H](CO)C(=O)N[C@@H](CCC(=O)O)C(=O)N[C@H](C(=O)N[C@H](C(=O)N[C@@H](CCC(N)=O)C(=O)N[C@@H](Cc1ccc(O)cc1)C(=O)N[C@@H](CCCNC(=N)N)C(=O)N[C@@H](CCCCN)C(=O)N[C@@H](C)C(=O)N[C@H](C(=O)N[C@@H](CCCCN)C(=O)N[C@@H](CO)C(N)=O)C(C)C)[C@@H](C)CC)[C@@H](C)O)[C@@H](C)O)[C@@H](C)O` [Compound 62] (Palmitoyl-ASTTSETIQYRKAVKS-NH2), the IC50 lay within 1000 to 5000 nM and the inhibition at 0.3 µM was 50%.
